According to patent US20260250257A1, “ANTIBACTERIAL AND SYNERGISTIC ACTIVE COMPOUND AND USE THEREOF” (EAST CHINA UNIVERSITY OF SCIENCE AND TECHNOLOGY, priority 2023, published 2026):
Values after ≈ are worked out from the molar mass of the structure shown.

Columns and labels:
Format in all cases: cell-based
[1] = test system: ATCC25922 strain (Escherichia coli); assay: Broth microdilution, antibacterial activity of the compound used alone; conditions: for MIC: read-out: Antibacterial activity of the compound of Formula I, ATCC25922
Source text: (§1) The broth microdilution method was used to test the antibacterial effects of the compounds of the present invention against various Gram-negative bacterial strains when used alone.

[2] = test system: ATCC9027 strain (Pseudomonas aeruginosa); assay: as above; conditions: for MIC: read-out: Antibacterial activity of the compound of Formula I, ATCC9027
Source text: as §1

[3] = test system: ATCC19606 strain (Acinetobacter baumannii); assay: as above; conditions: for MIC: read-out: Antibacterial activity of the compound of Formula I, ATCC19606
Source text: as §1

[4] = test system: ATCC13883 strain (Klebsiella pneumoniae); assay: as above; conditions: for MIC: read-out: Antibacterial activity of the compound of Formula I, ATCC13883
Source text: as §1

[5] = test system: ATCC25922 strain (Escherichia coli); assay: Checkerboard antibacterial synergistic activity test with polymyxin E (FIC); parameters: key: FIC≤0.5 synergy; 0.5–1 additive; 1–2 indifferent; ≥2 antagonism; conditions: combined with polymyxin E
Outline: (§2)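 Polymyxin E was diluted in MH broth to 16–0.015 μg/ml and the test compound to 256–4 μg/ml (two-fold series, pre-mixing concentrations), combined checkerboard-style in 96-well plates with bacterial suspension and blank controls, and incubated at 37° C. for 16 h. FIC ≤0.5 was scored synergistic, >0.5 to <1 additive, 1–2 indifferent, ≥2 antagonistic.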

[6] = test system: ATCC9027 strain (Pseudomonas aeruginosa); assay: as above; parameters: key: FIC≤0.5 synergy; 0.5–1 additive; 1–2 indifferent; ≥2 antagonism; conditions: combined with polymyxin E
Outline: as §2

[7] = test system: ATCC19606 strain (Acinetobacter baumannii); assay: as above; parameters: key: FIC≤0.5 synergy; 0.5–1 additive; 1–2 indifferent; ≥2 antagonism; conditions: combined with polymyxin E
Outline: as §2

[8] = test system: ATCC13883 strain (Klebsiella pneumoniae); assay: as above; parameters: key: FIC≤0.5 synergy; 0.5–1 additive; 1–2 indifferent; ≥2 antagonism; conditions: combined with polymyxin E
Outline: as §2

SMILES | MIC [1] [µg/mL] | MIC [2] [µg/mL] | MIC [3] [µg/mL] | MIC [4] [µg/mL] | Synergistic activity (FIC value) ATCC25922 [5] | Synergistic activity (FIC value) ATCC9027 [6] | Synergistic activity (FIC value) ATCC19606 [7] | Synergistic activity (FIC value) ATCC13883 [8] | Antibacterial activity of the compound of Formula I, ATCC25922 [1] [µg/mL] | Antibacterial activity of the compound of Formula I, ATCC9027 [2] [µg/mL] | Antibacterial activity of the compound of Formula I, ATCC19606 [3] [µg/mL] | Antibacterial activity of the compound of Formula I, ATCC13883 [4] [µg/mL]
NC(N)=Nc1nc(-c2cccc(Oc3ccccn3)c2)cs1 [Compound I-104] | 256 (≈ 822 µM) | 256 (≈ 822 µM) | 256 (≈ 822 µM) | 256 (≈ 822 µM) | 1.25 | 0.52 | 0.25 | 1.25 | – | – | – | –
NC(N)=Nc1nc(-c2cccc(Oc3ccc(N4CCOCC4)cc3)c2)cs1 [Compound I-105] | – | – | – | – | 1.25 | 0.51 | 1.25 | 1.25 | 256 | 256 | 256 | 256
CS(=O)(=O)c1ccc(Oc2cccc(-c3csc(N=C(N)N)n3)c2)cc1 [Compound I-106] | 256 (≈ 659 µM) | 256 (≈ 659 µM) | 256 (≈ 659 µM) | 256 (≈ 659 µM) | 0.53 | 1.25 | 1.25 | 1.25 | – | – | – | –
NC(N)=Nc1nc(-c2ccc(Sc3ccccc3)cc2)cs1 [Compound I-107] | 256 (≈ 784 µM) | 256 (≈ 784 µM) | 256 (≈ 784 µM) | 256 (≈ 784 µM) | 0.53 | 1.25 | 1.25 | 1.25 | – | – | – | –
Cc1ccc(Sc2ccccc2-c2coc(N=C(N)N)n2)c(C)c1 [Compound I-108] | – | – | – | – | 0.18 | 0.28 | 0.03 | 0.16 | 256 | 256 | 256 | 256
NC(N)=Nc1nc(-c2cccc(NC(=O)c3ccccc3)c2)cs1 [Compound I-109] | 256 (≈ 759 µM) | 256 (≈ 759 µM) | 256 (≈ 759 µM) | 256 (≈ 759 µM) | 0.27 | 1.25 | 1.25 | 1.25 | – | – | – | –
NC(N)=Nc1nc(-c2cccc(C(=O)Nc3ccccc3)c2)cs1 [Compound I-110] | – | – | – | – | 0.56 | 0.5 | 0.25 | 0.31 | 256 | 256 | 256 | 256
NC(N)=Nc1nc(-c2cccc(NS(=O)(=O)c3ccccc3)c2)cs1 [Compound I-111] | 256 (≈ 685 µM) | 256 (≈ 685 µM) | 256 (≈ 685 µM) | 256 (≈ 685 µM) | 0.63 | 1.25 | 0.5 | 0.25 | – | – | – | –
NC(N)=Nc1nc(-c2cc3ccccc3o2)cs1 [Compound I-112] | 256 (≈ 991 µM) | 256 (≈ 991 µM) | 256 (≈ 991 µM) | 256 (≈ 991 µM) | 1.25 | 0.52 | 0.51 | 1.25 | – | – | – | –
NC(N)=Nc1nc(-c2cc(OCc3ccccc3)no2)cs1 [Compound I-113] | 128 (≈ 406 µM) | 64 (≈ 203 µM) | 256 (≈ 812 µM) | 128 (≈ 406 µM) | 0.53 | 1.25 | 1.25 | 1.25 | – | – | – | –
NC(N)=Nc1nc(-c2ccc(OCc3ccccc3)c3nc(O)ccc23)cs1 [Compound I-114] | 256 (≈ 654 µM) | 256 (≈ 654 µM) | 256 (≈ 654 µM) | 256 (≈ 654 µM) | 0.5 | 1.25 | 0.27 | 1.25 | – | – | – | –
NC(N)=Nc1nc(-c2cccc3c2C(F)(F)c2cc(Br)ccc2-3)cs1 [Compound I-115] | 256 (≈ 608 µM) | 256 (≈ 608 µM) | 256 (≈ 608 µM) | 256 (≈ 608 µM) | 1.25 | 1.25 | 1.25 | 1.25 | – | – | – | –
NC(N)=Nc1nc(-c2cc(Cl)cc3c2Cc2ccc(Cl)cc2-3)cs1 [Compound I-116] | – | – | – | – | 0.5 | 1.25 | 0.25 | 0.63 | 256 | 256 | 256 | 256
NC(N)=Nc1nc(C2CC3CC4CC3CC2C4)cs1 (stereo not drawn) [Compound I-117] | 32 (≈ 116 µM) | 16 (≈ 57.9 µM) | 256 (≈ 926 µM) | 64 (≈ 232 µM) | 0.63 | 1.25 | 0.5 | 0.25 | – | – | – | –
NC(N)=Nc1nc(-c2c(S(N)(=O)=O)csc2Cl)cs1 [Compound I-118] | 256 (≈ 758 µM) | 256 (≈ 758 µM) | 256 (≈ 758 µM) | 256 (≈ 758 µM) | 1.25 | 1.25 | 1.25 | 0.19 | – | – | – | –
NC(N)=Nc1nc(-c2ccc3c(c2)COc2c-3ccc3c2C(=O)CCC3)cs1 [Compound I-119] | – | – | – | – | 1.25 | 1.25 | 1.25 | 0.19 | 256 | 256 | 256 | 256
NC(N)=Nc1nc(-c2cccc(N3CCOCC3)c2)cs1 [Compound I-120] | – | – | – | – | 0.75 | 0.25 | 1.25 | 0.28 | 256 | 256 | 256 | 256
NC(N)=Nc1nc(-c2ccc(O)c(CO)c2)cs1 [Compound I-121] | 256 (≈ 969 µM) | 256 (≈ 969 µM) | 256 (≈ 969 µM) | 256 (≈ 969 µM) | 0.56 | 1.25 | 1.25 | 1.25 | – | – | – | –
NC(N)=Nc1nc(-c2ccc3ccccn23)cs1 [Compound I-122] | – | – | – | – | 0.38 | 0.75 | 0.56 | 0.56 | 256 | 256 | 256 | 256
CSc1cc2ccccn2c1-c1csc(N=C(N)N)n1 [Compound I-123] | 256 (≈ 844 µM) | 256 (≈ 844 µM) | 256 (≈ 844 µM) | 256 (≈ 844 µM) | 0.14 | 0.06 | 0.31 | 0.09 | – | – | – | –
CSc1cc2c(C)cccn2c1-c1csc(N=C(N)N)n1 [Compound I-124] | – | – | – | – | 0.04 | 0.04 | 0.38 | 0.19 | 256 | 256 | 256 | 256
